Experimental data published in PMC12461628, “Tolerogenic antigen-specific vaccine induces VISTA-enriched regulatory T cells and protects against arthritis in DRB1∗04:01 mice” (Molecular Therapy, 2025).

Test: IL-17A ELISpot, lymph node cells after DTH
Format: cell-based, mouse
Settings: ConA 1 μg/mL, 48 h, 37°C
Experimental: For T cell recall assays, 1 × 10^6 lymph node cells per/well were plated in anti-IL17A (TC11-18H10.1, 5 μL, Mabtech)-coated plates (Merck Millipore, #MSIPS4W10), stimulated with denatured bCOL2 (30 μg/mL), and incubated for 48 h at 37°C. Positive controls consisted of lymph node cells stimulated with Concanavalin A (ConA; 1 μg/mL, Sigma), while negative controls comprised unstimulated cells in complete medium only. Bound IL-17A was detected with anti-IL17A (TC11-8H4, 1 μg/mL, Mabtech) followed by streptavidin-conjugated alkaline phosphatase. The spots were developed using the substrate BCIP/Nitroblue Tetrazolium (Sigma). Scanned wells (ImmunoScan) were analyzed with ImmunoSpot software (Cellular Technology).

## Concanavalin A [ConA]
  IL-17A ELISpot signal, positive control: exceeds 600 SFC/10^6 cells
